Consider 17 compounds from patent US3991199A, “Pyridoindoles” (Endo Laboratories, Inc., priority 1974, dated 1976).

Where a name gives a salt, the structure may show the parent alone. Read-outs that look alike come from different tables or passages of the source. Where only a bound is given, the exact number is not on record here.

Assay [1] concerns phenyl-p-benzoquinone writhing. Description: Phenylquinone Writhing (PQW), analgesic. Format: in vivo. Particulars: po, read-out: PQW mouse ED50. (In writhing tests, fewer writhes than in controls are read as antinociception.)
The next assay concerns locomotor activity. Description: Decreased Locomotor Activity (LMA), sedative. Type of assay: in vivo, mouse. Particulars: for minimal effective dose: po, read-out: LMA mouse MED.
Assay [2] has as its system pressor response to epinephrine and/or nor-epinephrine. The assay is described as follows: Adrenergic Blockage (AB). Type of assay: in vivo. The note with it: Canis lupus familiaris; intravenous, dog; read-out: AB dog MED.
The test system of assay [3] is conflict (approach-avoidance). Description: Rat Conflict (Approach-Avoidance) Test (Conf), minor tranquilizer. Type of assay: in vivo. Particulars: for minor tranquilizing (anxiolytic) activity: in words.
Assay [4] concerns conditioned avoidance response. The assay is described as follows: Rat Conditioned Avoidance Response (CAR), major tranquilizer. Type of assay: in vivo. The note with it: for ED50: po, read-out: CAR rat ED50.
Assay [5] has as its system conflict (approach-avoidance). The note with it: in words, background statement; cited from earlier work.
The subject of the next assay is blood pressure. Description: Hypotensive (Hypo): blood pressure in conscious rats. Type of assay: in vivo. Particulars: Rattus norvegicus, oral dose, read-out: Hypo rat MED.
For assay [6] the following is noted: U.S. Pat. No. 3,657,254; cited from earlier work.

The ED50 is the midpoint of the dose-response relation. With `c1ccc(CCN2CC[C@@H]3[C@@H](C2)c2ccccc2N3c2ccccc2)cc1` (relative stereo), in assay [1] (mouse), the ED50 worked out at 2 mg/kg. The minimal effective dose in the assay on locomotor activity (mouse) came to 10 mg/kg.
As for `Cl.c1ccc(N2c3ccccc3[C@@H]3CN(CC45CC6CC(CC(C6)C4)C5)CC[C@H]32)cc1` (racemic) [compound 4 of Table II, (±)-trans-2-(1-adamantylmethyl)-2,3,4,4a,5,9b-hexahydro-5-phenyl-1H-pyrido[4,3-b]indole, hydrochloride], the minimal effective dose in assay [2] was above 1 mg/kg; in assay [3] (po, rat, read-out: Conf rat MED) it was 10 mg/kg; in assay [3] (po, rat, comparison table, read-out: Rat Conf.) it was 10 mg/kg; in the assay on locomotor activity (mouse), 30 mg/kg. The values for the ED50 in assay [1] (mouse) and in assay [4] (rat) were 19 mg/kg and 50 mg/kg, respectively. Besides, in assay [3], the “minor tranquilizing (anxiolytic) activity” value is listed as “exhibit minor tranquilizing (anxiolytic) activity at doses which are not sedating”. In addition, the “major tranquilizing (antipsychotic) activity” value (“major tranquilizing” below) in assay [4] (in words) is listed as “exhibit major tranquilizing (antipsychotic) activity”.
For the compound `CCCC(C)(COC(N)=O)COC(N)=O` [meprobamate], the “effect in conflict test” value in assay [5] is given as “apparent decreased fear in the test animals”.
In the case of `C1=CCC(CN2CC[C@@H]3[C@@H](C2)c2ccccc2N3c2ccccc2)CC1` (relative stereo), the median effective dose (ED50) in assay [1] (mouse) is 2 mg/kg. Further, the minimal effective dose with locomotor activity (mouse) worked out at 3 mg/kg.
On to `CN1C(=O)CN=C(c2ccccc2)c2cc(Cl)ccc21` [diazepam, reference compound], for which, in assay [5], the “effect in conflict test” value is recorded as “apparent decreased fear in the test animals”. In addition, the minimal effective dose is 3 to 10 mg/kg in assay [3] (Rattus norvegicus, po, read-out: Conf rat MED, with ataxia); 3 to 10 mg/kg in assay [3] (Rattus norvegicus, po, read-out: Rat Conf.); 3 to 10 mg/kg in the assay on locomotor activity (Mus musculus).
In the case of `c1ccc(N2c3ccccc3[C@@H]3CN(CC4CCC4)CC[C@H]32)cc1` [compound of Example 2, (+)-trans-2-(cyclobutylmethyl)-2,3,4,4a,5,9b-hexahydro-5-phenyl-1H-pyrido[4,3-b]indole], the minimal effective dose with blood pressure and in the assay on locomotor activity (Mus musculus) was 3 mg/kg in each case. Besides, in assay [3] (rat, in vivo, po), the “Conf rat MED” value is given as “I”. In addition, the ED50 in assay [4] (Rattus norvegicus) is 4 mg/kg. Further, the “major tranquilizing” value in assay [4] (rat, in vivo) is given as “major tranquilizer (antipsychotic) activity”.
As to `CC(Cl)=CCN1CC[C@@H]2[C@@H](C1)c1ccccc1N2c1ccccc1` (relative stereo), the median effective dose (ED50) in assay [1] (mouse) came out at 2 mg/kg. Also, the minimal effective dose in the assay on locomotor activity (mouse) amounted to 1 mg/kg.
`c1ccc(N2c3ccccc3[C@@H]3CN(CC4CCCCC4)CC[C@H]32)cc1` (relative stereo): the minimal effective dose was 0.03 mg/kg in assay [2], 10 mg/kg with blood pressure and 3 mg/kg in the assay with locomotor activity (mouse). The ED50 in assay [1] (mouse) came to 4 mg/kg; in assay [4] (rat), 20 mg/kg. Further, in assay [3] (po, rat), the “Conf rat MED” value is “I”.
For the compound `COc1ccc2c3c1O[C@H]1[C@@H](O)C=C[C@H]4[C@@H](C2)N(C)CC[C@@]341` [codeine phosphate, reference compound], the ED50 in assay [1] (Mus musculus) was found to be 19 mg/kg.
Consider `CN(C)CCCN1c2ccccc2Sc2ccc(Cl)cc21` [chlorpromazine, reference compound], for which the “Conf rat MED” value in assay [3] (rat, in vivo, po) is recorded as “I”. The ED50 in assay [4] (Rattus norvegicus) amounted to 6 mg/kg. In addition, the minimal effective dose in the assay on locomotor activity (Mus musculus) fell in the range of 2 to 10 mg/kg.
Regarding `Cc1ccc2c(c1)[C@@H]1CN(C)CC[C@@H]1N2` (relative stereo) [2,8-dimethyl-2,3,4,4a,5,9b-hexahydro-1H-pyrido[4,3-b]]indole], in assay [6], the mechanism of action entry is on record as “adrenergic blockade”; the psychotropic effects result is “neuroleptic, antidepressive, and energizing effects”.
For `c1ccc(N2c3ccccc3[C@@H]3CN(CC4CCCC4)CC[C@H]32)cc1` (racemic) [compound 2 of Table II, (±)-trans-2-(cyclopentylmethyl)-2,3,4,4a,5,9b-hexahydro-5-phenyl-1H-pyrido[4,3-b]indole], the minimal effective dose in assay [2] is 0.03 mg/kg; in the assay with blood pressure, 10 mg/kg; with locomotor activity (mouse), 10 mg/kg. Also, the ED50 came out at 1 mg/kg in assay [1] (mouse) and 5 mg/kg in assay [4] (rat). Besides, in assay [3] (po, rat), the “Conf rat MED” value is “I”. The “major tranquilizing” value in assay [4] (in words) was “major tranquilizer (antipsychotic) activity”.
On to `Cl.c1ccc(N2c3ccccc3[C@@H]3CN(CC4C5CC6CC(C5)CC4C6)CC[C@H]32)cc1` (mixture of isomers) [compound 14 of Table II, (±)-trans-2-(2-adamantylmethyl)-2,3,4,4a,5,9b-hexahydro-5-phenyl-1H-pyrido[4,3-b]indole, hydrochloride], for which the ED50 in assay [1] (mouse) was found to be 27 mg/kg. Moreover, in assay [3], the “minor tranquilizing (anxiolytic) activity” value is “exhibit minor tranquilizing (anxiolytic) activity at doses which are not sedating”. Also, the “Conf rat, active dose” value in assay [3] (po, rat, ** active at this dose, MED not yet determined) was 10 mg/kg. For the same compound, in assay [4] (in words), the “major tranquilizing” value is on record as “exhibit major tranquilizing (antipsychotic) activity”. In addition, in the assay with locomotor activity (mouse), the minimal effective dose came to 2 mg/kg.
In the case of `CC12CCC(CN3CC[C@@H]4[C@@H](C3)c3ccccc3N4c3ccccc3)(CC1)CC2` (relative stereo), the ED50 in assay [1] (mouse) was found to be 80 mg/kg. In addition, the minimal effective dose in the assay on locomotor activity (mouse) turned out to be 30 mg/kg.
Regarding `CC12C=CC(CN3CC[C@@H]4[C@@H](C3)c3ccccc3N4c3ccccc3)(CC1)CC2` (relative stereo), in assay [1] (mouse), the 50% effective dose (ED50) is 14 mg/kg. Besides, in the assay on locomotor activity (mouse), the minimal effective dose is 30 mg/kg.
Regarding `CC(=O)Oc1ccccc1C(=O)O` [aspirin, reference compound], the ED50 in assay [1] (Mus musculus) was determined as 94 mg/kg.
For `c1ccc(N2c3ccccc3[C@@H]3CN(C[C@H]4[C@@H]5CCCC[C@@H]54)CC[C@H]32)cc1` (relative stereo) [compound 9 of Table II, (±)-trans-2,3,4,4a,5,9b-hexahydro-2-(exo-7-norcarylmethyl)-5-phenyl-1H-pyrido[4,3-b]indole, hydrochloride], the ED50 in assay [1] (mouse) came out at 1 mg/kg. In addition, the reducing locomotor activity result in the assay with locomotor activity (in words) was “potency in reducing locomotor activity”. In the assay on locomotor activity (mouse), the minimal effective dose was determined as 0.1 mg/kg.
